These are literature values, as cited in US20090054331A1, “HIGH TEMPERATURE STABLE PEPTIDE FORMULATION” (priority 2007, published 2009).

The conditions of series [1]: in vivo.
In series [2] the test system is human dental pulp cells. The note with it: in vitro.
Series [3] concerns human dental defects. Conditions: clinical trial.
The subject of series [4] is human osteoblasts.

For TDLQERGDNDISPFSGDGQPFKD [AC-100], the bone formation activities entry in series [1] is “has shown bone formation activities in vivo”. Moreover, the “proliferation of human dental pulp cells” value in series [2] is on record as “stimulation of the proliferation”. In series [3], the “formation of new dentin” value is listed as “formation of new dentin”. Moreover, the “effect on proliferation, differentiation and mineralization of human osteoblasts” value in series [4] was “stimulate proliferation, differentiation, and mineralization”.
